Assay results as given in ChEMBL document CHEMBL4138123, “Design, synthesis and biological evaluation of novel pyrazolochalcones as potential modulators of PI3K/Akt/mTOR pathway and inducers of apoptosis in breast cancer cells” (Eur J Med Chem, 2017).

What was measured:
Format in all cases: functional
DU-145 = assay: Cytotoxicity against human DU145 cells assessed as growth inhibition after 48 hrs by sulforhodamine B assay; settings: DU-145, 48 h; for CC50: read-out: LC50 (the source's name)
U-251 [1] = assay: Cytotoxicity against human U251 cells assessed as cell growth at 0.1 uM after 48 hrs by sulforhodamine B assay relative to control; settings: U-251, 48 h, read-out: Activity
NCI-H460 = assay: Cytotoxicity against human NCI-H460 cells assessed as cell growth at 10 uM after 48 hrs by sulforhodamine B assay relative to control; settings: NCI-H460, 48 h, read-out: Activity
IGROV-1 [2] = assay: Cytotoxicity against human IGROV1 cells assessed as cell growth at 100 uM after 48 hrs by sulforhodamine B assay relative to control; settings: IGROV-1, 48 h, read-out: Activity
UACC-257 = assay: Cytotoxicity against human UACC257 cells assessed as growth inhibition after 48 hrs by sulforhodamine B assay; settings: UACC-257, 48 h
NCI-H322M = assay: Cytotoxicity against human NCI-H322M cells assessed as growth inhibition after 48 hrs by sulforhodamine B assay; settings: for CC50: read-out: LC50 (the source's name)
SK-MEL-5 = assay: Cytotoxicity against human SK-MEL-5 cells assessed as cell growth at 0.1 uM after 48 hrs by sulforhodamine B assay relative to control; settings: SK-MEL-5, 48 h, read-out: Activity
ACHN = assay: Cytotoxicity against human ACHN cells assessed as cell growth at 1 uM after 48 hrs by sulforhodamine B assay relative to control; settings: read-out: Activity
U-251 [3] = assay: Cytotoxicity against human U251 cells assessed as cell growth at 1 uM after 48 hrs by sulforhodamine B assay relative to control; settings: U-251, 48 h, read-out: Activity
MOLT-4 [4] = assay: Cytotoxicity against human MOLT4 cells assessed as growth inhibition after 48 hrs by sulforhodamine B assay; settings: MOLT-4, 48 h; for CC50: read-out: LC50 (the source's name)
BT-549 [5] = assay: Cytotoxicity against human BT549 cells assessed as cell growth at 0.1 uM after 48 hrs by sulforhodamine B assay relative to control; settings: BT-549, 48 h, read-out: Activity
MOLT-4 [6] = assay: Cytotoxicity against human MOLT4 cells assessed as cell growth at 10 uM after 48 hrs by sulforhodamine B assay relative to control; settings: MOLT-4, 48 h, read-out: Activity
MDA-MB-435 = assay: Cytotoxicity against human MDA-MB-435 cells assessed as cell growth at 100 uM after 48 hrs by sulforhodamine B assay relative to control; settings: MDA-MB-435, 48 h, read-out: Activity
HOP-62 = assay: Cytotoxicity against human HOP62 cells assessed as cell growth at 0.1 uM after 48 hrs by sulforhodamine B assay relative to control; settings: HOP-62, 48 h, read-out: Activity
SW-620 = assay: Cytotoxicity against human SW620 cells assessed as growth inhibition after 48 hrs by sulforhodamine B assay; settings: SW-620, 48 h
CCRF-CEM = assay: Cytotoxicity against human CCRF-CEM cells assessed as cell growth at 100 uM after 48 hrs by sulforhodamine B assay relative to control; settings: read-out: Activity
TK-10 = assay: Cytotoxicity against human TK10 cells assessed as cell growth at 1 uM after 48 hrs by sulforhodamine B assay relative to control; settings: TK-10, 48 h, read-out: Activity
HCT-116 = assay: Cytotoxicity against human HCT116 cells assessed as cell growth at 0.1 uM after 48 hrs by sulforhodamine B assay relative to control; settings: HCT-116, 48 h, read-out: Activity
OVCAR-5 = assay: Cytotoxicity against human OVCAR5 cells assessed as cell growth at 1 uM after 48 hrs by sulforhodamine B assay relative to control; settings: OVCAR-5, 48 h, read-out: Activity
Hs-578T = assay: Cytotoxicity against human Hs 578T cells assessed as cell growth at 10 uM after 48 hrs by sulforhodamine B assay relative to control; settings: read-out: Activity
SK-MEL-2 = assay: Cytotoxicity against human SK-MEL-2 cells assessed as growth inhibition after 48 hrs by sulforhodamine B assay; settings: SK-MEL-2, 48 h
HCT-15 = assay: Cytotoxicity against human HCT15 cells assessed as cell growth at 10 uM after 48 hrs by sulforhodamine B assay relative to control; settings: HCT-15, 48 h, read-out: Activity
NCI/ADR-RES = assay: Cytotoxicity against human NCI/ADR-RES cells assessed as cell growth at 10 uM after 48 hrs by sulforhodamine B assay relative to control; settings: read-out: Activity
MDA-MB-231 = assay: Cytotoxicity against human MDA-MB-231 cells assessed as cell growth at 0.01 uM after 48 hrs by sulforhodamine B assay relative to control; settings: MDA-MB-231, 48 h, read-out: Activity
RXF 393 = assay: Cytotoxicity against human RXF393 cells assessed as growth inhibition after 48 hrs by sulforhodamine B assay; settings: RXF 393, 48 h
IGROV-1 [7] = assay: Cytotoxicity against human IGROV1 cells assessed as cell growth at 0.1 uM after 48 hrs by sulforhodamine B assay relative to control; settings: IGROV-1, 48 h, read-out: Activity
SK-OV-3 = assay: Cytotoxicity against human SKOV3 cells assessed as cell growth at 10 uM after 48 hrs by sulforhodamine B assay relative to control; settings: SK-OV-3, 48 h, read-out: Activity
SF-268 = assay: Cytotoxicity against human SF268 cells assessed as cell growth at 1 uM after 48 hrs by sulforhodamine B assay relative to control; settings: SF-268, 48 h, read-out: Activity
PC-3 = assay: Cytotoxicity against human PC3 cells assessed as cell growth at 0.01 uM after 48 hrs by sulforhodamine B assay relative to control; settings: PC-3, 48 h, read-out: Activity
OVCAR-4 = assay: Cytotoxicity against human OVCAR4 cells assessed as cell growth at 0.1 uM after 48 hrs by sulforhodamine B assay relative to control; settings: OVCAR-4, 48 h, read-out: Activity
RPMI-8226 = assay: Cytotoxicity against human RPMI8226 cells assessed as cell growth at 0.1 uM after 48 hrs by sulforhodamine B assay relative to control; settings: RPMI-8226, 48 h, read-out: Activity
HL-60(TB) = assay: Cytotoxicity against human HL-60(TB) cells assessed as cell growth at 0.01 uM after 48 hrs by sulforhodamine B assay relative to control; settings: HL-60, 48 h, read-out: Activity
COLO 205 = assay: Cytotoxicity against human COLO205 cells assessed as growth inhibition after 48 hrs by sulforhodamine B assay; settings: COLO 205, 48 h
BT-549 [8] = assay: Cytotoxicity against human BT549 cells assessed as cell growth at 100 uM after 48 hrs by sulforhodamine B assay relative to control; settings: BT-549, 48 h, read-out: Activity

## COc1ccc(-c2cc(/C=C/C(=O)c3ccc(N)cc3)[nH]n2)cc1OC
DU-145
  GI50: 3.74 µM
  TGI: 13.5 µM
  CC50: 36.8 µM
U-251 [1]
  growth at 0.1 µM: 95%
NCI-H460
  growth at 10 µM: -49%
IGROV-1 [2]
  growth at 100 µM: -62%
UACC-257
  GI50: 6.46 µM
  LC50: 45.7 µM
  TGI: 19.5 µM
NCI-H322M
  GI50: 4.34 µM
  TGI: 16.5 µM
  CC50: 46.2 µM
SK-MEL-5
  growth at 0.1 µM: 95%
ACHN
  growth at 1 µM: 88%
U-251 [3]
  growth at 1 µM: 88%
MOLT-4 [4]
  GI50: 3.11 µM
  TGI: 16.5 µM
  CC50: > 100 µM
BT-549 [5]
  growth at 0.1 µM: 92%
MOLT-4 [6]
  growth at 10 µM: 6%
MDA-MB-435
  growth at 100 µM: -72%
HOP-62
  growth at 0.1 µM: 91%
SW-620
  GI50: 2.5 µM
  LC50 (lethal concentration, 50% net cell kill): 82.9 µM
  TGI: 6.94 µM
CCRF-CEM
  growth at 100 µM: -22%
TK-10
  growth at 1 µM: 107%
HCT-116
  growth at 0.1 µM: 101%
OVCAR-5
  growth at 1 µM: 94%
Hs-578T
  growth at 10 µM: 40%
SK-MEL-2
  GI50: 8.44 µM
  LC50 (concentration killing 50% of cells): 53.2 µM
  TGI: 22.2 µM
HCT-15
  growth at 10 µM: -27%
NCI/ADR-RES
  growth at 10 µM: 37%
MDA-MB-231
  growth at 0.01 µM: 113%
RXF 393
  GI50: 2.15 µM
  LC50 (concentration killing 50% of cells): 15.9 µM
  TGI: 5.12 µM
IGROV-1 [7]
  growth at 0.1 µM: 106%
SK-OV-3
  growth at 10 µM: 29%
SF-268
  growth at 1 µM: 88%
PC-3
  growth at 0.01 µM: 95%
OVCAR-4
  growth at 0.1 µM: 90%
RPMI-8226
  growth at 0.1 µM: 96%
HL-60(TB)
  growth at 0.01 µM: 104%
COLO 205
  GI50: 1.88 µM
  LC50: 6.87 µM
  TGI: 3.59 µM
BT-549 [8]
  growth at 100 µM: -98%

## COc1cc(-c2cc(/C=C/C(=O)c3ccc(N)cc3)[nH]n2)cc(OC)c1OC
DU-145
  GI50: 1.65 µM
  TGI: 4.05 µM
  CC50: 9.95 µM
U-251 [1]
  growth at 0.1 µM: 94%
NCI-H460
  growth at 10 µM: -32%
IGROV-1 [2]
  growth at 100 µM: -49%
UACC-257
  GI50: 1.87 µM
  LC50: 8.66 µM
  TGI: 4.02 µM
NCI-H322M
  GI50: 2.23 µM
  TGI: 5.59 µM
  CC50: 20.9 µM
SK-MEL-5
  growth at 0.1 µM: 95%
ACHN
  growth at 1 µM: 79%
U-251 [3]
  growth at 1 µM: 76%
MOLT-4 [4]
  GI50: 1.91 µM
  TGI: 8.51 µM
  CC50: > 100 µM
BT-549 [5]
  growth at 0.1 µM: 93%
MOLT-4 [6]
  growth at 10 µM: -5%
MDA-MB-435
  growth at 100 µM: -85%
HOP-62
  growth at 0.1 µM: 92%
SW-620
  GI50: 2.05 µM
  LC50 (lethal concentration, 50% net cell kill): > 100 µM
  TGI: 6.37 µM
CCRF-CEM
  growth at 100 µM: -21%
TK-10
  growth at 1 µM: 102%
HCT-116
  growth at 0.1 µM: 97%
OVCAR-5
  growth at 1 µM: 89%
Hs-578T
  growth at 10 µM: 29%
SK-MEL-2
  GI50: 2.85 µM
  LC50 (concentration killing 50% of cells): 31.9 µM
  TGI: 7.53 µM
HCT-15
  growth at 10 µM: -12%
NCI/ADR-RES
  growth at 10 µM: 15%
MDA-MB-231
  growth at 0.01 µM: 109%
RXF 393
  GI50: 1.35 µM
  LC50 (concentration killing 50% of cells): 7.79 µM
  TGI: 3.24 µM
IGROV-1 [7]
  growth at 0.1 µM: 108%
SK-OV-3
  growth at 10 µM: -9%
SF-268
  growth at 1 µM: 81%
PC-3
  growth at 0.01 µM: 97%
OVCAR-4
  growth at 0.1 µM: 105%
RPMI-8226
  growth at 0.1 µM: 97%
HL-60(TB)
  growth at 0.01 µM: 99%
COLO 205
  GI50: 1.74 µM
  LC50: 6.42 µM
  TGI: 3.34 µM
BT-549 [8]
  growth at 100 µM: -97%

## COc1ccc(C(=O)/C=C/c2cc(-c3ccc(OC)c(OC)c3)n[nH]2)cc1OC
DU-145
  GI50: 1.64 µM
  TGI: 4.8 µM
  CC50: 17.4 µM
U-251 [1]
  growth at 0.1 µM: 89%
NCI-H460
  growth at 10 µM: -20%
IGROV-1 [2]
  growth at 100 µM: -2%
UACC-257
  GI50: 2.16 µM
  TGI: 5.02 µM
NCI-H322M
  GI50: 2.67 µM
  TGI: 8.23 µM
  CC50: > 100 µM
SK-MEL-5
  growth at 0.1 µM: 96%
ACHN
  growth at 1 µM: 76%
U-251 [3]
  growth at 1 µM: 62%
MOLT-4 [4]
  GI50: 2.2 µM
  TGI: > 100 µM
  CC50: > 100 µM
BT-549 [5]
  growth at 0.1 µM: 89%
MOLT-4 [6]
  growth at 10 µM: 5%
MDA-MB-435
  growth at 100 µM: 2%
HOP-62
  growth at 0.1 µM: 84%
SW-620
  GI50: 1.5 µM
  TGI: 5.41 µM
CCRF-CEM
  growth at 100 µM: -20%
TK-10
  growth at 1 µM: 106%
HCT-116
  growth at 0.1 µM: 88%
OVCAR-5
  growth at 1 µM: 76%
Hs-578T
  growth at 10 µM: 23%
SK-MEL-2
  GI50: 2.46 µM
  TGI: 5.17 µM
HCT-15
  growth at 10 µM: -19%
NCI/ADR-RES
  growth at 10 µM: 16%
MDA-MB-231
  growth at 0.01 µM: 108%
RXF 393
  GI50: 1.45 µM
  TGI: 2.98 µM
IGROV-1 [7]
  growth at 0.1 µM: 104%
SK-OV-3
  growth at 10 µM: 9%
SF-268
  growth at 1 µM: 74%
PC-3
  growth at 0.01 µM: 99%
OVCAR-4
  growth at 0.1 µM: 86%
RPMI-8226
  growth at 0.1 µM: 91%
HL-60(TB)
  growth at 0.01 µM: 101%
COLO 205
  GI50: 1.55 µM
  TGI: 3.1 µM
BT-549 [8]
  growth at 100 µM: -89%
